Target: full-length recombinant human FYN A (Homo sapiens (Human), UniProt P06241)
Test: ADP-Glo Kinase Assay of FYN kinase inhibition
Assay type: biochemical
Conditions: primary screen, initial compounds
Source text: The chemical library was comprised of the SoftFocus ATP-competitive hinge binding compounds described by Harris, C. J., Hill, R. D., Sheppard, D. W., et al., The Design and Application of Target-Focused Compound Libraries. Combinatorial Chemistry and High Throughput Screening 14:521-31 (2011). The specific pharmacore chemistries included SFK52 comprising 6-[R2]-3-[R1]imidazo[1,2-b] pyridazine compounds, SFK33 comprising N-(3-[R2] imidazo [1,2-b] pyridazin-6-yl) [R1] amine compounds, SFK49 comprising N-(5-[R2] imidazo [2,1-b][1,3,4] thiadiazol-2-yl)[R1]-amine compounds, SFK 40 comprising 5-[R2]-3-[R1] pyridin-2-amine compounds, SFK43 comprising 6-[R2]-3-[R1]imidazo[1,2-a]pyrazine compounds, and SFK63. The chemical structures of the initial 600 potential kinase inhibitors are presented in Table 3, with those chosen for additional analysis presented in Table 4. Comparison of the compounds presented in Table 1 and those of Tables 2, 3 and 4, illustrate the novelty of the chemical structures claimed herein.
FYN kinase (10 micrograms) was from the FYN A Kinase Enzyme System (V3571, Promega UK Ltd.), a full-length recombinant human FYN A containing an N-terminal GST tag of about 85 kDa, expressed by bacullovirus in […] insect cells, supplied at a concentration of 0.1 microgram/microliter in 5×reaction buffer. The FYN substrate, a 12 amino acid peptide of the sequence […], containing a single tyrosine phosphorylation site, was custom synthesized (Peptide Synthetics, Peptide Protein Research, Fareham, UK) and supplied as a 4 mg/ml aqueous solution. All other reagents were obtained from Sigma (Sigma-Aldrich, Gillingham, Dorset, UK), with the exception of UltraPure ATP (V9102, Promega UK Ltd.) and the ATP-competitive broad spectrum protein kinase inhibitor staurosporine (569397, Merck Millipore, Watford, Hertfordshire, UK), or as otherwise indicated.
The assay procedure determines the IC50 of each potential FYN kinase inhibitor by measuring the enzyme catalyzed ATP-dependent phosphorylation of the FYN substrate peptide. The ADP-Glo™ Kinase Assay is specifically designed to quantify kinase activity by measuring the ADP produced in the reaction The reaction buffer comprises 40 mM Tris.HCl (pH 7.5), 20 mM MgCl2, 0.1 mg/ml BSA and 5 microM DTT. Individual compounds within the chemical library were dissolved in DMSO at known concentrations. Briefly, 2.5 microliters of reaction buffer containing 3 picograms of FYN kinase and serial dilutions of each potential FYN kinase inhibitor (9 3-fold dilutions of a 10 micromolar top sample) are placed into each well of a 384 well microtiter plate and incubated at room temperature for 30 minutes. An additional 2.5 microliters of reaction buffer containing 100 picograms of the FYN substrate and 12.5 picomoles of ATP are then added to each well and the reaction carried out for 90 minutes at room temperature. The reactions are terminated by addition of 5 microliters of the ADP-Glo™ Reagent component of the ADP-Glo™ Kinase Assay kit to each well. The ADP-Glo™ Reagent comprises an ATP-dependent adenylate cyclase, an inorganic pyrophosphatase and an excess of staurosporine. The adenylate cyclase converts the remaining ATP to cAMP and pyrophospahte, the pyrophosphatase converts the pyrophosphate to phosphate and the staurosporine inhibits the activity of the FYN kinase, the net effect is to remove all residual ATP while preserving the ADP produced by FYN kinase. The terminated reactions are incubated for 40 minutes at room temperature, prior to addition of the Kinase Detection Reagent component of the ADP-Glo™ Kinase Assay kit to each well. The Kinase Detection Reagent comprises pyruvate kinase, phosphoenol pyruvate (PEP), luciferin and luciferase. The pyruvate kinase converts PEP to pyruvate and in the process generates ATP from the residual ADP present in the terminated reaction. […]

Sequence of full-length recombinant human FYN A (P06241 whole entry): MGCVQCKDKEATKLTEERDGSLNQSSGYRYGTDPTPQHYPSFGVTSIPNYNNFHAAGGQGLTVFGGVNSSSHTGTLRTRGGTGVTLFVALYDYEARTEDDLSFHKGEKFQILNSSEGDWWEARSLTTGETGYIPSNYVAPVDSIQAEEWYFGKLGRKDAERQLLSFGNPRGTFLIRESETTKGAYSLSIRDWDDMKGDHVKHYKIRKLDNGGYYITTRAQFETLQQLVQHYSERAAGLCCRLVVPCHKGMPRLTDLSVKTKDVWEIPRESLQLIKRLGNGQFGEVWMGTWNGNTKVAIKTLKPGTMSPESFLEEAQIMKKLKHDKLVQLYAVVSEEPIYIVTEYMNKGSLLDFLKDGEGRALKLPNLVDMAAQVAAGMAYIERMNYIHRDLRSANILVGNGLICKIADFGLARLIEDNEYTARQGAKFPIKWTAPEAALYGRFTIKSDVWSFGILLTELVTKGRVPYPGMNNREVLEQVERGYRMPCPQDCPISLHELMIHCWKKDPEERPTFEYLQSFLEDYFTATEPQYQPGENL

Structure (SMILES) | IC50 [µM]
COc1ccc(-c2cnc3ccc(NCc4cccc(Cl)c4)nn23)cn1 [229_0223_0311, N-[(3-chlorophenyl)methyl]-3-(6-methoxy-3-pyridyl)imidazo [1,2-b]pyridazin-6-amine] | 8.34
COc1cc(-c2cnc3ccc(NCc4cccc(Cl)c4)nn23)ccc1O [229_0223_0314, 4-[6-[(3-chlorophenyl)methylamino]imidazo[1,2-b]pyridazin-3-yl]-2-methoxy-phenol] | 3.52
Nc1ccc(-c2cnc3ccc(NCc4cccc(Cl)c4)nn23)cc1 [229_0223_0333, 3-(4-aminophenyl)-N-[(3-chlorophenyl)methyl]imidazo [1,2-b]pyridazin-6-amine] | 3.41
OCc1ccc(-c2cnc3ccc(NCc4ccc(F)cc4)nn23)cc1 [229_0224_0285, [4-[6-[(4-fluorophenyl)methylamino]imidazo[1,2-b]pyridazin-3-yl]phenyl] methanol] | 2.44
CCCNc1ccc2ncc(-c3cccc(N)c3)n2n1 [229_0226_0005, 3-(3-aminophenyl)-N-propyl-imidazo[1,2-b]pyridazin-6-amine] | 0.932
CCCNc1ccc2ncc(-c3ccc4c(c3)OCO4)n2n1 [229_0226_0068, 3-(1,3-benzodioxol-5-yl)-N-propyl-imidazo[1,2-b]pyridazin-6-amine] | 2.05
CCCNc1ccc2ncc(-c3ccsc3)n2n1 [229_0226_0074, N-propyl-3-(3-thienyl)imidazo [1,2-b]pyridazin-6-amine] | 4.04
CCCNc1ccc2ncc(-c3ccc(OC)c(OC)c3)n2n1 [229_0226_0079, 3-(3,4-dimethoxy-phenyl)-N-propyl-imidazo[1,2-b]pyridazin-6-amine] | 0.519
CCCNc1ccc2ncc(-c3cccc(NC(C)=O)c3)n2n1 [229_0226_0081, N-[3-[6-(propylamino)imidazo[1,2-b]pyridazin-3-yl]phenyl] acetamide] | 0.629
CCCNc1ccc2ncc(-c3ccc(C(=O)O)cc3)n2n1 [229_0226_0140, 4-[6-(propylamino)imidazo[1,2-b]pyridazin-3-yl]benzoic acid] | 9.77
CCCNc1ccc2ncc(-c3ccc(OC)cc3)n2n1 [229_0226_0280, 3-(4-methoxyphenyl)-N-propyl-imidazo[1,2-b]pyridazin-6-amine] | 5.43
CCCNc1ccc2ncc(-c3cccc(O)c3)n2n1 [229_0226_0284, 3-[6-(propylamino)imidazo[1,2-b]pyridazin-3-yl]phenol] | 0.93
CCCNc1ccc2ncc(-c3cccc(OC)c3)n2n1 [229_0226_4140, 3-(3-methoxyphenyl)-N-propyl-imidazo[1,2-b]pyridazin-6-amine] | 2.22
CCCNc1ccc2ncc(-c3cccc(C(C)=O)c3)n2n1 [229_0226_4145, 1-[3-[6-(propylamino)imidazo[1,2-b]pyridazin-3-yl]phenyl] ethanone] | 0.367
O=C(O)c1ccc(-c2cnc3ccc(NCc4ccc(Cl)c(Cl)c4)nn23)cc1 [229_0227_0140, 4-[6-[(3,4-dichlorophenyl)methylamino]imidazo[1,2-b]pyridazin-3-yl]benzoic acid] | 1.01
c1cc(-c2cnc3ccc(NCc4ccc5c(c4)OCO5)nn23)ccn1 [229_0236_0069, N-(1,3-benzodioxol-5-ylmethyl)-3-(4-pyridyl)imidazo [1,2-b]pyridazin-6-amine] | 0.38
Oc1ccc(-c2cnc3ccc(NCc4ccc5c(c4)OCO5)nn23)cc1 [229_0236_0080, 4-[6-(1,3-benzodioxol-5-ylmethyl-amino)imidazo[1,2-b]pyridazin-3-yl]phenol] | 5.67

Structure (SMILES) | IC50 [µM]
c1ccc(-c2cnc3ccc(NCc4ccncc4)nn23)cc1 [229_0237_0061, 3-phenyl-N-(4-pyridylmethyl) imidazo[1,2-b]pyridazin-6-amine] | 4.06
c1ccc2oc(-c3cnc4ccc(NCc5ccncc5)nn34)cc2c1 [229_0237_0073, 3-(benzofuran-2-yl)-N-(4-pyridylmethyl) imidazo[1,2-b]pyridazin-6-amine] | 6.45
Nc1cccc(-c2cnc3ccc(NC4CCOCC4)nn23)c1 [229_0242_0005, 3-(3-aminophenyl)-N-tetrahydro-pyran-4-yl-imidazo[1,2-b]pyridazin-6-amine] | 0.746
COc1ccc(-c2cnc3ccc(NC4CCOCC4)nn23)cc1OC [229_0242_0079, 3-(3,4-dimethoxy-phenyl)-N-tetra-hydropyran-4-yl-imidazo[1,2-b]pyridazin-6-amine] | 0.547
CC(=O)Nc1cccc(-c2cnc3ccc(NC4CCOCC4)nn23)c1 [229_0242_0081, N-[3-[6-(tetrahydro-pyran-4-ylamino)imidazo[1,2-b]pyridazin-3-yl]phenyl] acetamide] | 0.588
COc1cc(-c2cnc3ccc(NC4CCOCC4)nn23)cc(OC)c1OC [229_0242_0087, N-tetrahydropyran-4-yl-3-(3,4,5-trimethoxy-phenyl) imidazo[1,2-b]pyridazin-6-amine] | 0.617
c1cc2cc(-c3cnc4ccc(NC5CCOCC5)nn34)ccc2[nH]1 [229_0242_0204, 3-(1H-indol-5-yl)-N-tetrahydropyran-4-yl-imidazo[1,2-b]pyridazin-6-amine] | 1.17
Nc1ccc(-c2cnc3ccc(NC4CCOCC4)nn23)cc1 [229_0242_0333, 3-(4-aminophenyl)-N-tetrahydropyran-4-yl-imidazo[1,2-b]pyridazin-6-amine] | 3.13
COc1cccc(-c2cnc3ccc(NC4CCOCC4)nn23)c1 [229_0242_4140, 3-(3-methoxy-phenyl)-N-tetrahydro-pyran-4-yl-imidazo[l,2-b]pyridazin-6-amine] | 0.87
COc1ccc(CNc2ccc3ncc(-c4ccc(O)c(OC)c4)n3n2)cc1 [229_0244_0314, 2-methoxy-4-[6-[(4-methoxyphenyl)methylamino]imidazo[1,2-b]pyridazin-3-yl]phenol] | 4.01
OCCCNc1ccc2ncc(-c3ccc4c(c3)OCO4)n2n1 [229_0248_0068, 3-[[3-(1,3-benzodioxol-5-yl)imidazo[1,2-b]pyridazin-6-yl]amino] propan-1-ol] | 0.929
OCCCNc1ccc2ncc(-c3ccc4[nH]ccc4c3)n2n1 [229_0248_0204, 3-[[3-(1H-indol-5-yl)imidazo[1,2-b]pyridazin-6-yl]amino] propan-1-ol] | 2.72
OCCCNc1ccc2ncc(-c3cccc(C(F)(F)F)c3)n2n1 [229_0248_0312, 3-[[3-[3-(trifluoro-methyl)phenyl]imidazo[1,2-b]pyridazin-6-yl]amino] propan-1-ol] | 3.41
COc1cc(-c2cnc3ccc(NCCCO)nn23)ccc1O [229_0248_0314, 4-[6-(3-hydroxy-propylamino)imidazo[1,2-b]pyridazin-3-yl]-2-methoxy-phenol] | 0.329
OCCCNc1ccc2ncc(-c3ccc(Oc4ccccc4)cc3)n2n1 [229_0248_1029, 3-[[3-(4-phenoxyphenyl)imidazo[1,2-b]pyridazin-6-yl]amino] propan-1-ol] | 5.54
CC(C)[C@@H](CO)Nc1ccc2ncc(-c3cccc(N)c3)n2n1 [229_0254_0005, (2S)-2-[[3-(3-aminophenyl)imidazo[1,2-b]pyridazin-6-yl]amino]-3-methyl-butan-1-ol] | 1.81
CC(C)[C@@H](CO)Nc1ccc2ncc(-c3ccc4c(c3)OCO4)n2n1 [229_0254_0068, (2S)-2-[[3-(1,3-benzodioxol-5-yl)imidazo[1,2-b]pyridazin-6-yl]amino]-3-methyl-butan-1-ol] | 1.82

— patent publication US10688093B2, “Methods, compositions, and uses of novel Fyn kinase inhibitors” (priority 2015, dated 2020)
